Results as given in paper PMC10051292, “Neoprzewaquinone A Inhibits Breast Cancer Cell Migration and Promotes Smooth Muscle Relaxation by Targeting PIM1 to Block ROCK2/STAT3 Pathway” (International Journal of Molecular Sciences, 2023).

Target: PIM1 (Homo sapiens, UniProt P11309)
Assay: ADP-Glo in vitro kinase assay; supported by CETSA western blot in MDA-MB-231 (about […] °C stabilization)
Type: biochemical

Chain of PIM1 (P11309 whole entry): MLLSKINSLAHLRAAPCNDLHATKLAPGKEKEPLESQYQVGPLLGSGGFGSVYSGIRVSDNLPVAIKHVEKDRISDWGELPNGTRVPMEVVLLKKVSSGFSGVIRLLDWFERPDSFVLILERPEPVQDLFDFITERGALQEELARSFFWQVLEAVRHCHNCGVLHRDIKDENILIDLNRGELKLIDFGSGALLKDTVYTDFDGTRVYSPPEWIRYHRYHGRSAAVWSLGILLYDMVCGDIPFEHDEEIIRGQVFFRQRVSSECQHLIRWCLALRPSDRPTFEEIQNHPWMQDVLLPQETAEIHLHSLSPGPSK

SMILES: C=C1CCCc2c(ccc3c2C(=O)C(=O)c2c(C)coc2-3)/C(C)=C/CCc2c1ccc1c2C(=O)C(=O)c2c(C)coc2-1 [NEO, Neoprzewaquinone A]
- IC50: 560 nM
